According to US20210330756A1, “Acetylation of Miro1” (University of South Carolina, priority 2020, published 2021):

Experiments:
[1] = tested on: sciatic nerve unmyelinated axons; assay: EM count of mitochondria in unmyelinated sciatic nerve axons after nerve injection; format: in vivo, rat; details: 2 μl of 1.5 mM, EM 2 h after injection, vs vehicle
Procedure: To determine if TubA might also affect axonal mitochondria in vivo, we directly injected TubA into the sciatic nerve of adult rats at mid-thigh. […] As this could reflect stalling of mitochondria or increased numbers of anterogradely and/or retrogradely moving mitochondria, we performed in vivo imaging to visualize mitochondrial dynamics.
For in vivo inhibition of HDAC6, the sciatic nerve of anesthetized adult rats was injected twice at mid-thigh level with 2 μl of 1.5 mM TubA on the right and 2 μl of DMSO (vehicle control) on the left (isofluorane inhalation was used for anesthesia). Nerve injection sites were separated by 2 mm. […]
Vesicle trafficking was quantified using differential ImageJ Difference Tracker Plug-in (Andrews et al., 2010). 50-80-μm long unbranched axon segments at approximately the mid-region between growth cone and cell body were analyzed. […] The distance between the growth tip at end of the post-CALI sequence and the pre-CALI baseline was measured using LAS-X software. Movement of ≥0.5 μm toward the axon shaft was counted as retracted. Fluorescence emission of the Mito-KR post-CALI was analyzed using ImageJ. […] For axon shaft FRAP analyses, each 50-μm bleached ROI was divided into […], and the fluorescence intensity recovery was measured as described above. […] A minimum of 75 unmyelinated axons was analyzed for each nerve. […]

[2] = tested on: rat embryonic cortical neurons; details: 10 μM; cited from earlier work

CN1CCc2c(c3ccccc3n2Cc2ccc(C(=O)NO)cc2)C1 [TubA, tubastatin]
mitochondrial numbers in unmyelinated axons [1]: significantly increased mitochondrial numbers
histone acetylation [2]: no effect on histone acetylation
levels of acetyl (Ac) α-tubulin [2]: increases levels of acetyl (Ac) α-tubulin
